One experiment deals with T1, CDK9/CycT1 (Homo sapiens, UniProt P50750).
T1 construct: Recombinant full-length His-tagged human CDK9 and CycT1; His; purchased Invitrogen PV4131; host or cells: insect cells
Put plainly: CDK9/CycT1 high ATP kinase assay (TR-FRET, Method 1b). Particulars: for IC50: Method 1b, 2 mM ATP; for Selectivity high ATP CDK9 over high ATP CDK2: IC50 (high ATP CDK2)/IC50 (high ATP CDK9): Methods 1b and 2b, minimal values where CDK9 IC50 is at the assay limit. In kind it is biochemical. As for the experimental part: 1b. CDK9/CycT1 High ATP Kinase Assay
CDK9/CycT1-inhibitory activity of compounds of the present invention at a high ATP concentration after preincubation of enzyme and test compounds was quantified employing the CDK9/CycT1 TR-FRET assay as described in the following paragraphs.
Recombinant full-length His-tagged human CDK9 and CycT1, expressed in insect cells and purified by Ni-NTA affinity chromatography, were purchase from Invitrogen (Cat. No PV4131). As substrate for the kinase reaction biotinylated peptide biotin-Ttds-YISPLKSPYKISEG (C-terminus in amid form) was used which can be purchased e.g. from the company JERINI peptide technologies (Berlin, Germany). For the assay 50 nl of a 100 fold concentrated solution of the test compound in DMSO was pipetted into a black low volume 384 well microtiter plate (Greiner Bio-One, Frickenhausen, Germany), 2 μl of a solution of CDK9/CycT1 in aqueous assay buffer [50 mM Tris/HCl pH 8.0, 10 mM MgCl2, 1.0 mM dithiothreitol, 0.1 mM sodium ortho-vanadate, 0.01% (v/v) Nonidet-P40 (Sigma)] were added and the mixture was incubated for 15 min at 22° C. to allow pre-binding of the test compounds to the enzyme before the start of the kinase reaction. […] The concentration of CDK9/CycT1 was adjusted depending of the activity of the enzyme lot and was chosen appropriate to have the assay in the linear range, typical concentrations were in the range of 0.5 μg/mL. The reaction was stopped by the addition of 5 μl of a solution of TR-FRET detection reagents (0.2 μM streptavidine-XL665 [Cisbio Bioassays, Codolet, France] and 1 nM anti-RB(pSer807/pSer811)-antibody from BD Pharmingen [#558389] and 1.2 nM LANCE EU-W1024 labeled anti-mouse IgG antibody [Perkin-Elmer, product no. AD0077]) in an aqueous EDTA-solution (100 mM EDTA, 0.2% (w/v) bovine serum albumin in 100 mM HEPES pH 7.5).
The resulting mixture was incubated 1 h at 22° C. to allow the formation of complex between the phosphorylated biotinylated peptide and the detection reagents. Subsequently the amount of phosphorylated substrate was evaluated by measurement of the resonance energy transfer from the Eu-chelate to the streptavidine-XL. Therefore, the fluorescence emissions at 620 nm and 665 nm after excitation at 350 nm was measured in a HTRF reader, e.g. a Rubystar (BMG Labtechnologies, Offenburg, Germany) or a Viewlux (Perkin-Elmer). The ratio of the emissions at 665 nm and at […] was taken as the measure for the amount of phosphorylated substrate. The data were normalised (enzyme reaction without inhibitor=0% inhibition, all other assay components but no enzyme=100% inhibition).

For the next experiment, the system named is HeLa-MaTu-ADR cells. Put plainly: Proliferation assay HeLa-MaTu-ADR. The experiment is classed as cell-based, human. Particulars: 4 days, crystal violet, read-out: Inhibition of HeLa-MaTu-ADR cell proliferation IC50. As for the experimental part: (§1) Cultivated tumour cells (HeLa, human cervical tumour cells, ATCC CCL-2; NCI-H460, human non-small cell lung carcinoma cells, ATCC HTB-177; A2780, human ovarian carcinoma cells, ECACC #93112519; DU 145, hormone-independent human prostate carcinoma cells, ATCC HTB-81; HeLa-MaTu-ADR, multidrug-resistant human cervical carcinoma cells, EPO-GmbH Berlin; Caco-2, human colorectal carcinoma cells, ATCC HTB-37; B16F10, mouse melanoma cells, ATCC CRL-6475) were plated at a density of 5,000 cells/well (DU145, HeLa-MaTu-ADR), 3,000 cells/well (NCI-H460, HeLa), 2,500 cells/well (A2780), 1,500 cells/well (Caco-2), or 1,000 cells/well (B16F10) in a 96-well multititer plate in 200 μL of their respective growth medium supplemented 10% fetal calf serum. After 24 hours, the cells of one plate (zero-point plate) were stained with crystal violet (see below), while the medium of the other plates was replaced by fresh culture medium (200 μl), to which the test substances were added in various concentrations (0 μM, as well as in the range of 0.001-10 μM). The cells were incubated for 4 days in the presence of test substances. Cell proliferation was determined by staining the cells with crystal violet: the cells were fixed by adding 20 μl/measuring point of an 11% glutaric aldehyde solution for 15 minutes at room temperature. After three washing cycles of the fixed cells with water, the plates were dried at room temperature. The cells were stained by adding 100 μl/measuring point of a 0.1% crystal violet solution (pH 3.0). After three washing cycles of the stained cells with water, the plates were dried at room temperature. The dye was dissolved by adding 100 μl/measuring point of a 10% acetic acid solution. The extinction was determined by photometry at a wavelength of 595 nm. The change of cell number, in percent, was calculated by normalization of the measured values to the extinction values of the zero-point plate (=0%) and the extinction of the untreated (0 μm) cells (=100%). The IC50 values (inhibitory concentration at 50% of maximal effect) were determined by means of a 4 parameter fit. Non-adherent MOLM-13 human acute myeloid leukemia cells (DSMZ ACC 554) were seeded at a density of 5,000 cells/well in a 96-well multititer plate in 100 μL of growth medium supplemented 10% fetal calf serum. After 24 hours, cell viability of one plate (zero-point plate) was determined with the Cell Titre-Glo Luminescent Cell Viability Assay (Promega), while 50 μL of test compound containing medium was added to the wells of the other plates (final concentrations in the range of 0.001-1 μM and DMSO controls). Cell viability was assessed after 72-hour exposure with the Cell Titre-Glo Luminescent Cell Viability Assay (Promega). IC50 values (inhibitory concentration at 50% of maximal effect) were determined by means of a 4 parameter fit on measurement data which were normalized to vehicle (DMSO) treated cells (=100%) and measurement readings taken immediately before compound exposure (=0%).

For the next experiment, the system named is NCI-H460 cells. Put plainly: Proliferation assay NCI-H460. The experiment is classed as cell-based, human. Particulars: 4 days, crystal violet, read-out: Inhibition of NCI-H460 cell proliferation IC50. As for the experimental part:
as §1

The subject of the next experiment is DU145 cells. Nature of the experiment: Proliferation assay DU145. In kind it is cell-based, human. The following applies: 4 days, crystal violet, read-out: Inhibition of DU145 cell proliferation IC50. As for the experimental part:
as §1

From patent US9963464B2, “Macrocyclic compounds” (Bayer Pharma Aktiengesellschaft, priority 2014, dated 2018) come the findings set out here.

Like-named read-outs stand apart in the source and are kept apart here.

T1 sequence (P50750 whole entry): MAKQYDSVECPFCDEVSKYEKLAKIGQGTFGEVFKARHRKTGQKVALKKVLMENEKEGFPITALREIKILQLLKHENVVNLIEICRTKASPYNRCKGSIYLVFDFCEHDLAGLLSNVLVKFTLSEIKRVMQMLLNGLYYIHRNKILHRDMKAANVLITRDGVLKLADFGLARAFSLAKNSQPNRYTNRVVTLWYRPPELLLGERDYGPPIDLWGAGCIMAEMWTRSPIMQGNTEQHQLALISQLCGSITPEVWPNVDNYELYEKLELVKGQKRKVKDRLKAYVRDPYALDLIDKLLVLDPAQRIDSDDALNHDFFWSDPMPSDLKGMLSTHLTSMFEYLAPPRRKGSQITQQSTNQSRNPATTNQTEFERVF
T1 sequence (O60563 whole entry partner): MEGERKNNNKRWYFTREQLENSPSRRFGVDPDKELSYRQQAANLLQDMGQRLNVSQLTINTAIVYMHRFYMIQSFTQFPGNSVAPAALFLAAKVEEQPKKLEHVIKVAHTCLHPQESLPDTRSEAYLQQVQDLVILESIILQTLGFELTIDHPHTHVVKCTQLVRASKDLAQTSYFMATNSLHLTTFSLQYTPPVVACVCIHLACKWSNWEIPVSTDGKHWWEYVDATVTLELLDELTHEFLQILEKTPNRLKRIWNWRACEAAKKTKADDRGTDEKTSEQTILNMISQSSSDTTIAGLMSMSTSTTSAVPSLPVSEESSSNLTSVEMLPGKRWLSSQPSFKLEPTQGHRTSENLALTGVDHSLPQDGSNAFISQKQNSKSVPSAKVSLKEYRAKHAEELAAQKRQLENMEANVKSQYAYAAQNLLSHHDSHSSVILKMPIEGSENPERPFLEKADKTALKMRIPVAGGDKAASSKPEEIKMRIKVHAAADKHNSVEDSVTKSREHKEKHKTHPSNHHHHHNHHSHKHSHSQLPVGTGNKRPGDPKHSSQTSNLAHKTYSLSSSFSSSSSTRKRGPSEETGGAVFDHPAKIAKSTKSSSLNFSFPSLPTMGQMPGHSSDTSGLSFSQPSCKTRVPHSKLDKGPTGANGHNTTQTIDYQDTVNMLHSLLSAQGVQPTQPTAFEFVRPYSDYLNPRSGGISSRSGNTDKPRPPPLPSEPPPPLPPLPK

As to `CCNC(=O)N=S(C)(=O)Cc1cc2nc(c1)OCCCOc1cc(F)ccc1-c1cc(ncc1F)N2` (racemic) [Example 17, (rac)-1-[{[15,19-difluoro-3,4-dihydro-2H,11H-10,6-(azeno)-12,16-(metheno)-1,5,11,13-benzodioxadiazacyclooctadecin-8-yl]methyl}(methyl)oxido-λ^6-sulfanylidene]-3-ethylurea], the IC50 on CDK9/CycT1 is 2.7 nM; with HeLa-MaTu-ADR cells (Homo sapiens, 96 h), 25 nM; in the experiment on NCI-H460 cells (Homo sapiens, NCI-H460, 96 h), 31 nM; in the experiment with DU145 cells (Homo sapiens, DU-145, 96 h), 36 nM. Besides, the “Selectivity high ATP CDK9 over high ATP CDK2: IC50 (high ATP CDK2)/IC50 (high ATP CDK9)” value (shortened to “Selectivity high ATP CDK9”) at CDK9/CycT1 came out at 13.5.
Take `CC(=O)N=S(C)(=O)Cc1cc2nc(c1)OCCCOc1cc(F)ccc1-c1cc(ncc1F)N2` (racemic) [Example 18, (rac)-N-[{[15,19-difluoro-3,4-dihydro-2H,11H-10,6-(azeno)-12,16-(metheno)-1,5,11,13-benzodioxadiazacyclooctadecin-8-yl]methyl}(methyl)oxido-λ^6-sulfanylidene]acetamide]: the IC50 at CDK9/CycT1 is 2.9 nM; with HeLa-MaTu-ADR cells (Homo sapiens, 96 h), 10 nM; in the experiment on NCI-H460 cells (Homo sapiens, NCI-H460, 96 h), 27 nM; in the experiment on DU145 cells (Homo sapiens, DU-145, 96 h) it was 26 nM. In addition, the “Selectivity high ATP CDK9” value at CDK9/CycT1 worked out at 21.7.
Taken in the same sequence, the figures for `CN=S(C)(=O)Cc1cc2nc(c1)OCCCOc1cc(F)ccc1-c1cc(ncc1F)N2` (racemic) [Example 19, (rac)-8-[(N,S-dimethylsulfonimidoyl)methyl]-15,19-difluoro-3,4-dihydro-2H,11H-10,6-(azeno)-12,16-(metheno)-1,5,11,13-benzodioxadiazacyclooctadecine] were 1.9 nM, 38 nM, 49 nM, 78 nM and 81.7.
Taken in the same sequence, the figures for `CCOC(=O)N=S(C)(=O)Cc1cc2nc(c1)OCCCOc1cc(F)ccc1-c1cc(ncc1F)N2` (racemic) [Example 20, (rac)-ethyl [{[15,19-difluoro-3,4-dihydro-2H,11H-10,6-(azeno)-12,16-(metheno)-1,5,11,13-benzodioxadiazacyclooctadecin-8-yl]methyl}(methyl)oxido-λ^6-sulfanylidene]carbamate] were 3.4 nM, 30 nM, 35 nM, 55 nM and 13.2.
Taken in the same sequence, the figures for `CS(=O)(Cc1cc2nc(c1)OCCCOc1cc(F)ccc1-c1cc(ncc1F)N2)=NC(=O)OCCCl` (racemic) [Example 21, (rac)-2-chloroethyl [{[15,19-difluoro-3,4-dihydro-2H,11H-10,6-(azeno)-12,16-(metheno)-1,5,11,13-benzodioxadiazacyclooctadecin-8-yl]methyl}(methyl)oxido-λ^6-sulfanylidene]carbamate] were 5.9 nM, 15 nM, 28 nM, 31 nM and 12.7.
`CS(=O)(=O)N=S(C)(=O)Cc1cc2nc(c1)OCCCOc1cc(F)ccc1-c1cc(ncc1F)N2` (racemic) [Example 22, (rac)-N-[{[15,19-difluoro-3,4-dihydro-2H,11H-10,6-(azeno)-12,16-(metheno)-1,5,11,13-benzodioxadiazacyclooctadecin-8-yl]methyl}(methyl)oxido-λ^6-sulfanylidene]methanesulfonamide]: the IC50 at CDK9/CycT1 amounted to 2.7 nM; in the experiment on HeLa-MaTu-ADR cells (Homo sapiens, 96 h), 20 nM; in the experiment with NCI-H460 cells (Homo sapiens, NCI-H460, 96 h), 36 nM; in the experiment on DU145 cells (Homo sapiens, DU-145, 96 h), 40 nM. In addition, at CDK9/CycT1, the “Selectivity high ATP CDK9” value turned out to be 71.6.
For `CS(=O)(Cc1cc2nc(c1)OCCCOc1cc(F)ccc1-c1cc(ncc1F)N2)=NS(=O)(=O)CCN` (racemic) [Example 23, (rac)-2-amino-N-[{[15,19-difluoro-3,4-dihydro-2H,11H-10,6-(azeno)-12,16-(metheno)-1,5,11,13-benzodioxadiazacyclooctadecin-8-yl]methyl}(methyl)oxido-λ^6-sulfanylidene]ethanesulfonamide], the IC50 amounted to 3.9 nM against CDK9/CycT1; 396 nM in the experiment on HeLa-MaTu-ADR cells (Homo sapiens, 96 h); 741 nM in the experiment on NCI-H460 cells (Homo sapiens, NCI-H460, 96 h); 833 nM in the experiment with DU145 cells. On CDK9/CycT1, the “Selectivity high ATP CDK9” value came out at 69.5.
Take `CS(=O)(Cc1cc2nc(c1)OCCCOc1cc(F)ccc1-c1cc(ncc1F)N2)=NS(=O)(=O)CCN.O=C(O)C(F)(F)F` (racemic) [Example 24, (rac)-2-{[{[15,19-difluoro-3,4-dihydro-2H,11H-10,6-(azeno)-12,16-(metheno)-1,5,11,13-benzodioxadiazacyclooctadecin-8-yl]methyl}(methyl)oxido-λ^6-sulfanylidene]sulfamoyl}ethanaminium trifluoroacetate]: the IC50 at CDK9/CycT1 stood at 1.8 nM; in the experiment on HeLa-MaTu-ADR cells (trifluoroacetate) it was 210 nM; in the experiment on NCI-H460 cells (trifluoroacetate), 391 nM; in the experiment on DU145 cells (trifluoroacetate), 387 nM. For the same compound, at CDK9/CycT1, the “Selectivity high ATP CDK9” value was found to be 90.4.
